Assay results published in patent US6579899B1, “Composition for treatment of stress” (Massachusetts Institute of Technology, priority 1998, dated 2003).
Counter-ions that a name gives are not always drawn.

Columns and labels:
obese, stressed patients [1] = experiment: CES-D test of current levels of emotional distress in patients; type: in vivo, human; details: for CES-D Mood Score: over the treatment period
Description: (§1) A subgroup of obese individuals is identified, which individuals describe themselves as being unable to control their eating and who attempt to continue on a weight-reducing diet when experiencing emotional distress. […]
(§2) Objective measurements of emotional distress are made in some patients using the CES-D (Center for […] Depression Form) test, which measures current levels of emotional distress (Radloff, et al., The CES-D Scale: A Self Report Depression Scale for Research in the General Population Applied Psychological Measurement 1: 385-401, 1977); and the POMS (Profile of Mood States test, that assesses tension, depression, anger and confusion (McNair, et al., Profile of Mood States Manual;San Diego: Educational and Industrial Testing Service, 1971); both of these references are hereby incorporated by reference in their entirety. These tests are also given monthly during the treatment period. At the same time, patients also complete questionnaires that ask the patients to rate their appetite and hunger, and also to rate their tendency to eat in response to a variety of emotional and stressful triggers. The patients are also weighed monthly.

obese, stressed patients [2] = experiment: questionnaire rating tendency to eat in response to emotional and stressful triggers; type: in vivo, human; set-up: Emotional Triggers: scale not given here; details: for emotional triggers score: over the treatment period
Description: as §1, §2

[3] = system: patient experiencing stress induced symptoms; experiment: treatment of patients with stress induced symptoms with serotonin precursors (Examples 16-23); type: in vivo, human
obese, stressed patients [4] = experiment: questionnaire rating appetite and hunger; type: in vivo, human; set-up: Appetite and Cravings: scale not given here
Description: as §1, §2

[5] = body weight in four month weight loss program; type: in vivo, human
Description: as §1, §2

rats = details: Rowland et al.; cited from earlier work
[6] = Example 19, food based preparation, in conjunction with a serotonin agonist
[7] = Example 23, food based preparation
[8] = Example 20, in conjunction with a stimulant of serotonin synthesis
[9] = Example 22, functional food, in conjunction with a stimulant of serotonin synthesis
[10] = patient seven, 45 then 60 mg/day, Month 1, baseline 20
[11] = patient seven, 45 then 60 mg/day, Month 2, baseline 20
[12] = patient seven, 45 then 60 mg/day, Month 3, baseline 20
[13] = patient seven, 45 then 60 mg/day, Month 4, baseline 20

Compound: N[C@@H](Cc1c[nH]c2ccc(O)cc12)C(=O)O [L-5-hydroxytryptophan]
- CES-D Mood Score (obese, stressed patients [1]; [6]): drops
- CES-D Mood Score (obese, stressed patients [1]; [7]): drops
- emotional triggers score (obese, stressed patients [2]; [6]): drops
- emotional triggers score (obese, stressed patients [2]; [7]): drops
- stress induced depression [3, 6]: reduced depression
- stress [3, 8]: decreased stress
- stress induced high blood pressure [3, 8]: lower blood pressure
- stress induced inability to concentrate [3, 7]: improved concentration

Compound: CC(CN(C)C)CN1c2ccccc2CCc2ccccc21 (stereo not shown) [trimipramine maleate]
- Mood Scores CES-D (obese, stressed patients [1]; patient eight, 75 then 100 mg/day, Month 1, baseline 25): 22
- Mood Scores CES-D (obese, stressed patients [1]; patient eight, 75 then 100 mg/day, Month 2, baseline 25): 20
- Mood Scores CES-D (obese, stressed patients [1]; patient eight, 75 then 100 mg/day, Month 3, baseline 25): 15
- Mood Scores CES-D (obese, stressed patients [1]; patient eight, 75 then 100 mg/day, Month 4, baseline 25): 13
- Appetite and Cravings (obese, stressed patients [4]; patient eight, 75 then 100 mg/day, Month 1, baseline 11): 9
- Appetite and Cravings (obese, stressed patients [4]; patient eight, 75 then 100 mg/day, Month 2, baseline 11): 8
- Appetite and Cravings (obese, stressed patients [4]; patient eight, 75 then 100 mg/day, Month 3, baseline 11): 13
- Appetite and Cravings (obese, stressed patients [4]; patient eight, 75 then 100 mg/day, Month 4, baseline 11): 6
- Emotional Triggers (obese, stressed patients [2]; patient eight, 75 then 100 mg/day, Month 1, baseline 14): 8
- Emotional Triggers (obese, stressed patients [2]; patient eight, 75 then 100 mg/day, Month 2, baseline 14): 13
- Emotional Triggers (obese, stressed patients [2]; patient eight, 75 then 100 mg/day, Month 3, baseline 14): 6
- Emotional Triggers (obese, stressed patients [2]; patient eight, 75 then 100 mg/day, Month 4, baseline 14): 3
- weight at the end of 4 months ([5]; patient eight, 75 then 100 mg/day, starting weight 81.8 kg): 71.8 kg
- weight at the end of 4 months ([5]; patient eight, 75 then 100 mg/day, starting weight 180 pounds): 158 pounds

Compound: CN(C)CCCN1c2ccccc2CCc2ccccc21 [imipramine hydrochloride]
- Mood Scores CES-D (obese, stressed patients [1]; patient five, intramuscular 75 mg/day, Month 1, baseline 36): 34
- Mood Scores CES-D (obese, stressed patients [1]; patient five, intramuscular 75 mg/day, Month 2, baseline 36): 26
- Mood Scores CES-D (obese, stressed patients [1]; patient five, intramuscular 75 mg/day, Month 3, baseline 36): 21
- Mood Scores CES-D (obese, stressed patients [1]; patient five, intramuscular 75 mg/day, Month 4, baseline 36): 20
- Appetite and Cravings (obese, stressed patients [4]; patient five, intramuscular 75 mg/day, Month 1, baseline 15): 12
- Appetite and Cravings (obese, stressed patients [4]; patient five, intramuscular 75 mg/day, Month 2, baseline 15): 7
- Appetite and Cravings (obese, stressed patients [4]; patient five, intramuscular 75 mg/day, Month 3, baseline 15): 3
- Appetite and Cravings (obese, stressed patients [4]; patient five, intramuscular 75 mg/day, Month 4, baseline 15): 6
- Emotional Triggers (obese, stressed patients [2]; patient five, intramuscular 75 mg/day, Month 1, baseline 22): 15
- Emotional Triggers (obese, stressed patients [2]; patient five, intramuscular 75 mg/day, Month 2, baseline 22): 14
- Emotional Triggers (obese, stressed patients [2]; patient five, intramuscular 75 mg/day, Month 3, baseline 22): 6
- Emotional Triggers (obese, stressed patients [2]; patient five, intramuscular 75 mg/day, Month 4, baseline 22): 8
- weight after 4 months ([5]; patient five, intramuscular 75 mg/day, starting weight 74.1 kg): 70.4 kg
- weight after 4 months ([5]; patient five, intramuscular 75 mg/day, starting weight 163 pounds): 155 pounds

Compound: N[C@@H](Cc1c[nH]c2ccccc12)C(=O)O [L-tryptophan]
- stress induced fatigue ([3]; Example 18, functional food, in conjunction with a stimulant of serotonin synthesis): reduced fatigue
- stress as indicated by CES-D Mood Score and emotional triggers score [3, 9]: reduced stress
- stress induced neck and back pain [3, 9]: reduced back and neck pain

Compound: O=C([O-])[O-].[Li+].[Li+] [lithium carbonate]
- Mood Scores CES-D (obese, stressed patients [1]; patient one, 900 mg/day, Month 1, baseline 4): 3
- Mood Scores CES-D (obese, stressed patients [1]; patient one, 900 mg/day, Month 2, baseline 4): 3
- Mood Scores CES-D (obese, stressed patients [1]; patient one, 900 mg/day, Month 3, baseline 4): 2
- Mood Scores CES-D (obese, stressed patients [1]; patient one, 900 mg/day, Month 4, baseline 4): 2
- Appetite and Cravings (obese, stressed patients [4]; patient one, 900 mg/day, Month 1, baseline 14): 6
- Appetite and Cravings (obese, stressed patients [4]; patient one, 900 mg/day, Month 2, baseline 14): 9
- Appetite and Cravings (obese, stressed patients [4]; patient one, 900 mg/day, Month 3, baseline 14): 5
- Appetite and Cravings (obese, stressed patients [4]; patient one, 900 mg/day, Month 4, baseline 14): 3
- Emotional Triggers (obese, stressed patients [2]; patient one, 900 mg/day, Month 1, baseline 15): 16
- Emotional Triggers (obese, stressed patients [2]; patient one, 900 mg/day, Month 2, baseline 15): 10
- Emotional Triggers (obese, stressed patients [2]; patient one, 900 mg/day, Month 3, baseline 15): 6
- Emotional Triggers (obese, stressed patients [2]; patient one, 900 mg/day, Month 4, baseline 15): 7
- weight after 4 months ([5]; patient one, 900 mg/day, starting weight 111.8 kg): 102.3 kg
- weight after 4 months ([5]; patient one, 900 mg/day, starting weight 246 pounds): 225 pounds

Compound: CCNC(C)Cc1cccc(C(F)(F)F)c1 (racemic) [D,L-fenfluramine, N-ethyl-α-methyl-3-(trifluoro-methyl)benzeneethanamine]
- Mood Scores CES-D (obese, stressed patients [1]; patient six, 30 mg/day, Month 1, baseline 5): 1
- Mood Scores CES-D (obese, stressed patients [1]; patient six, 30 mg/day, Month 2, baseline 5): 3
- Mood Scores CES-D (obese, stressed patients [1]; patient six, 30 mg/day, Month 3, baseline 5): 2
- Mood Scores CES-D (obese, stressed patients [1]; patient six, 30 mg/day, Month 4, baseline 5): 1
- Appetite and Cravings (obese, stressed patients [4]; patient six, 30 mg/day, Month 1, baseline 10): 2
- Appetite and Cravings (obese, stressed patients [4]; patient six, 30 mg/day, Month 2, baseline 10): 5
- Appetite and Cravings (obese, stressed patients [4]; patient six, 30 mg/day, Month 3, baseline 10): 5
- Appetite and Cravings (obese, stressed patients [4]; patient six, 30 mg/day, Month 4, baseline 10): 4
- Emotional Triggers (obese, stressed patients [2]; patient six, 30 mg/day, Month 1, baseline 23): 2
- Emotional Triggers (obese, stressed patients [2]; patient six, 30 mg/day, Month 2, baseline 23): 3
- Emotional Triggers (obese, stressed patients [2]; patient six, 30 mg/day, Month 3, baseline 23): 2
- Emotional Triggers (obese, stressed patients [2]; patient six, 30 mg/day, Month 4, baseline 23): 4
- tail pressure/tail pinch-induced eating (rats): inhibits tail pressure-induced eating

Compound: CN[C@H]1CC[C@@H](c2ccc(Cl)c(Cl)c2)c2ccccc21 [sertraline hydrochloride]
- Mood Scores CES-D (obese, stressed patients [1]; patient nine, 100 mg/day in divided doses, Month 4, baseline 9): 1
- Mood Scores CES-D (obese, stressed patients [1]; patient two, 50 rising to 200 mg/day, Month 1, baseline 20): 16
- Mood Scores CES-D (obese, stressed patients [1]; patient two, 50 rising to 200 mg/day, Month 2, baseline 20): 16
- Mood Scores CES-D (obese, stressed patients [1]; patient two, 50 rising to 200 mg/day, Month 3, baseline 20): 10
- Mood Scores CES-D (obese, stressed patients [1]; patient two, 50 rising to 200 mg/day, Month 4, baseline 20): 12
- Appetite and Cravings (obese, stressed patients [4]; patient two, 50 rising to 200 mg/day, Month 1, baseline 15): 12
- Appetite and Cravings (obese, stressed patients [4]; patient two, 50 rising to 200 mg/day, Month 2, baseline 15): 5
- Appetite and Cravings (obese, stressed patients [4]; patient two, 50 rising to 200 mg/day, Month 3, baseline 15): 3
- Appetite and Cravings (obese, stressed patients [4]; patient two, 50 rising to 200 mg/day, Month 4, baseline 15): 1
- Emotional Triggers (obese, stressed patients [2]; patient nine, 100 mg/day in divided doses, Month 4, baseline 12): 3
- Emotional Triggers (obese, stressed patients [2]; patient two, 50 rising to 200 mg/day, Month 1, baseline 22): 12
- Emotional Triggers (obese, stressed patients [2]; patient two, 50 rising to 200 mg/day, Month 2, baseline 22): 13
- Emotional Triggers (obese, stressed patients [2]; patient two, 50 rising to 200 mg/day, Month 3, baseline 22): 5
- Emotional Triggers (obese, stressed patients [2]; patient two, 50 rising to 200 mg/day, Month 4, baseline 22): 3
- weight at the end of 4 months ([5]; patient nine, 100 mg/day in divided doses, starting weight 92.3 kg): 72.7 kg
- weight at the end of 4 months ([5]; patient nine, 100 mg/day in divided doses, starting weight 203 pounds): 160 pounds
- weight at the end of 4 months ([5]; patient two, 50 rising to 200 mg/day, starting weight 78.6 kg): 72.7 kg
- weight at the end of 4 months ([5]; patient two, 50 rising to 200 mg/day, starting weight 173 pounds): 160 pounds

Compound: CNCCC(Oc1ccc(C(F)(F)F)cc1)c1ccccc1 (stereo not shown) [fluoxetine hydrochloride]
- Mood Scores CES-D (obese, stressed patients [1]; patient four, 20 rising to 80 mg/day, Month 1, baseline 15): 10
- Mood Scores CES-D (obese, stressed patients [1]; patient four, 20 rising to 80 mg/day, Month 2, baseline 15): 2
- Mood Scores CES-D (obese, stressed patients [1]; patient four, 20 rising to 80 mg/day, Month 3, baseline 15): 6
- Mood Scores CES-D (obese, stressed patients [1]; patient four, 20 rising to 80 mg/day, Month 4, baseline 15): 7
- Appetite and Cravings (obese, stressed patients [4]; patient four, 20 rising to 80 mg/day, Month 1, baseline 17): 6
- Appetite and Cravings (obese, stressed patients [4]; patient four, 20 rising to 80 mg/day, Month 2, baseline 17): 9
- Appetite and Cravings (obese, stressed patients [4]; patient four, 20 rising to 80 mg/day, Month 3, baseline 17): 3
- Appetite and Cravings (obese, stressed patients [4]; patient four, 20 rising to 80 mg/day, Month 4, baseline 17): 4
- Emotional Triggers (obese, stressed patients [2]; patient four, 20 rising to 80 mg/day, Month 1, baseline 31): 22
- Emotional Triggers (obese, stressed patients [2]; patient four, 20 rising to 80 mg/day, Month 2, baseline 31): 13
- Emotional Triggers (obese, stressed patients [2]; patient four, 20 rising to 80 mg/day, Month 3, baseline 31): 10
- Emotional Triggers (obese, stressed patients [2]; patient four, 20 rising to 80 mg/day, Month 4, baseline 31): 12
- weight at the end of 4 months ([5]; patient four, 20 rising to 80 mg/day, starting weight 83.2 kg): 78.2 kg
- weight at the end of 4 months ([5]; patient four, 20 rising to 80 mg/day, starting weight 183 pounds): 172 pounds

Compound: NNCCc1ccccc1 [phenelzine sulfate]
- Mood Scores CES-D (obese, stressed patients [1]; [10]): 22
- Mood Scores CES-D (obese, stressed patients [1]; [11]): 20
- Mood Scores CES-D (obese, stressed patients [1]; [12]): 15
- Mood Scores CES-D (obese, stressed patients [1]; [13]): 14
- Appetite and Cravings (obese, stressed patients [4]; patient seven, 45 then 60 mg/day, Month 1, baseline 19): 15
- Appetite and Cravings (obese, stressed patients [4]; patient seven, 45 then 60 mg/day, Month 2, baseline 19): 8
- Appetite and Cravings (obese, stressed patients [4]; patient seven, 45 then 60 mg/day, Month 3, baseline 19): 13
- Appetite and Cravings (obese, stressed patients [4]; patient seven, 45 then 60 mg/day, Month 4, baseline 19): 12
- Emotional Triggers (obese, stressed patients [2]; [10]): 8
- Emotional Triggers (obese, stressed patients [2]; [11]): 13
- Emotional Triggers (obese, stressed patients [2]; [12]): 6
- Emotional Triggers (obese, stressed patients [2]; [13]): 7
- weight at the end of 4 months ([5]; patient seven, 45 then 60 mg/day, starting weight 83.6 kg): 79.1 kg
- weight at the end of 4 months ([5]; patient seven, 45 then 60 mg/day, starting weight 184 pounds): 174 pounds
